Measurements as given in ChEMBL document CHEMBL1201862, “PubChem BioAssay data set” (2004).
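48-hour exposure; five concentrations; linearly interpolated endpoints. GI50 = concentration required for 50% inhibition of growth.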 Active and inactive are the calls of the source. Cut-off read from the data, not from the text of the source: active = GI50 up to about 1.1 µM and inactive = higher. Peptide text beside a SMILES is read from it.

What was measured:
Assay in all cases: DTP human tumour cell line panel, 48 h
HOP-18 = tested on: HOP-18
M19-MEL = tested on: M19-MEL
DMS-273 = tested on: DMS-273
KM-20L2 = tested on: KM-20L2
DMS-114 = tested on: DMS-114
RXF 631 = tested on: RXF 631
SNB-78 = tested on: SNB-78
LXFL 529 = tested on: LXFL 529
XF498 = tested on: XF498

Compound | GI50 (HOP-18) | GI50 (M19-MEL) | GI50 (DMS-273) | GI50 (KM-20L2) | GI50 (DMS-114) | GI50 (RXF 631) | GI50 (SNB-78) | GI50 (LXFL 529) | GI50 (XF498)
O=Cc1c(O)c(C(=O)Nc2ccc3[nH]c(=O)[nH]c3c2)cc2ccccc12 | > 100 µM (inactive) | > 100 µM (inactive) | > 100 µM (inactive) | > 100 µM (inactive) | > 100 µM (inactive) | > 100 µM (inactive) | > 100 µM (inactive) | > 100 µM (inactive) | –
C/C(=C\CBr)CCC(Br)C(C)(C)Cl (stereo unspecified) | > 100 µM (inactive) | > 100 µM (inactive) | > 100 µM (inactive) | – | > 100 µM (inactive) | – | > 100 µM (inactive) | > 100 µM (inactive) | –
COc1cccc(/C=N\NC(=O)C(C)SC(C)C(=O)N/N=C/c2cccc(OC)c2)c1 (stereo unspecified) | – | > 63.4 µM (inactive) | 33 µM (inactive) | 47 µM (inactive) | 19.4 µM (inactive) | – | 36 µM (inactive) | 33.9 µM (inactive) | 53.1 µM (inactive)
CCOC(=O)C(=O)Nc1c(C)cccc1C(C)(C)C | > 100 µM (inactive) | > 100 µM (inactive) | > 100 µM (inactive) | > 100 µM (inactive) | > 100 µM (inactive) | > 100 µM (inactive) | > 100 µM (inactive) | > 100 µM (inactive) | > 100 µM (inactive)
COc1cc(OC(C)=O)cc2c(OC(C)=O)ccc(OC(C)=O)c12 | – | – | – | > 100 µM (inactive) | – | – | > 100 µM (inactive) | > 100 µM (inactive) | –
O=C1COc2cc(NC(=S)Nc3ccccc3)ccc2N1 | > 100 µM (inactive) | > 100 µM (inactive) | > 100 µM (inactive) | > 100 µM (inactive) | > 100 µM (inactive) | > 100 µM (inactive) | > 100 µM (inactive) | > 100 µM (inactive) | > 100 µM (inactive)
O=C(c1ccc(Cl)cc1)c1ccc(OCCSCCCCCCCCCCSCCOc2ccc(C(=O)c3ccc(Cl)cc3)cc2)cc1 | – | > 100 µM (inactive) | > 100 µM (inactive) | > 100 µM (inactive) | – | > 100 µM (inactive) | > 100 µM (inactive) | – | –
O=C(O)C1OC(n2cc(F)c(=O)[nH]c2=O)CC1O (stereo unspecified) | 40.6 µM (inactive) | > 83.2 µM (inactive) | 12.9 µM (inactive) | 23.8 µM (inactive) | > 92.3 µM (inactive) | – | > 26.2 µM (inactive) | 8.99 µM (inactive) | > 68.2 µM (inactive)
COc1ccc(-c2oc(/C=N/NC(N)=S)c([N+](=O)[O-])c2-c2ccc(OC)c(OC)c2)cc1OC | – | 24.2 µM (inactive) | – | 18.2 µM (inactive) | 19.4 µM (inactive) | 30.4 µM (inactive) | – | 20.3 µM (inactive) | 26.7 µM (inactive)
COc1cc(C(=O)C/C(CCCC(=O)Nc2ccccc2[N+](=O)[O-])=N/NC(=O)c2cc3ccccc3cc2O)ccc1O | 6.24 µM (inactive) | – | 15.6 µM (inactive) | 27.4 µM (inactive) | – | > 71.4 µM (inactive) | > 63.8 µM (inactive) | – | > 100 µM (inactive)
CCCCn1c(-c2ccccc2)cs/c1=N\NC(=O)Cn1c(C)nc2ccccc21 | > 100 µM (inactive) | 30.4 µM (inactive) | 76 µM (inactive) | 84.9 µM (inactive) | – | – | > 100 µM (inactive) | 25.1 µM (inactive) | 31.9 µM (inactive)
Cc1ccc(NC(=O)C(=O)C(C(=O)c2ccc3ccccc3c2)C2OC(=O)c3ccccc32)c(C)c1 (stereo unspecified) | 12.1 µM (inactive) | 6.38 µM (inactive) | > 10 µM (inactive) | 24.4 µM (inactive) | 7.6 µM (inactive) | 4.68 µM (inactive) | 8.73 µM (inactive) | 8.09 µM (inactive) | 0.485 µM (active)
COc1ccc(C(=O)C(CO)Oc2ccccc2OC)cc1OC (stereo unspecified) | – | > 100 µM (inactive) | > 100 µM (inactive) | > 100 µM (inactive) | > 100 µM (inactive) | > 100 µM (inactive) | > 100 µM (inactive) | > 100 µM (inactive) | > 100 µM (inactive)
CC(C)CC(NC(=O)C(CC(C)C)NC(=O)C(Cc1c[nH]cn1)NC(=O)C(C)NC(=O)C(NC(=O)C(C)NC(=O)C(Cc1c[nH]c2ccccc12)NC(=O)C(CCC(=O)O)NC(=O)C(N)Cc1ccccc1)C(C)C)C(N)=O (stereo unspecified) (H-FEWAVAHLL-NH2; configuration not given here) | > 100 µM (inactive) | > 100 µM (inactive) | > 100 µM (inactive) | > 100 µM (inactive) | > 100 µM (inactive) | > 100 µM (inactive) | > 100 µM (inactive) | > 100 µM (inactive) | > 100 µM (inactive)
CCOc1ccc2c(c1)[n+]([O-])c(-c1ccc([N+](=O)[O-])cc1)c(N)[n+]2[O-] | > 100 µM (inactive) | > 100 µM (inactive) | > 100 µM (inactive) | > 100 µM (inactive) | 29.6 µM (inactive) | > 100 µM (inactive) | > 100 µM (inactive) | > 100 µM (inactive) | –
Cc1cc(NC(=O)NC(=O)c2ccccc2N)ccc1Oc1ncc(Br)cn1 | 28.8 µM (inactive) | 0.0231 µM (active) | < 0.0316 µM (active) | 0.016 µM (active) | < 0.01 µM (active) | – | – | < 0.0179 µM (active) | 0.0334 µM (active)
C=C1C(=O)OC2CCCCC3OC3C12 (stereo unspecified) | 11 µM (inactive) | 11.6 µM (inactive) | 10.3 µM (inactive) | 10.1 µM (inactive) | – | 6.19 µM (inactive) | 19.4 µM (inactive) | 7.26 µM (inactive) | 12 µM (inactive)
Cc1cc(N(CCC#N)CCC#N)ccc1/C=C(\N=[N+]=[N-])C(=O)NC(=O)COc1ccccc1 | > 100 µM (inactive) | – | > 100 µM (inactive) | > 100 µM (inactive) | > 100 µM (inactive) | > 100 µM (inactive) | > 61.7 µM (inactive) | > 100 µM (inactive) | 34.7 µM (inactive)
COC(=O)/C=C(/C(=O)OC)C1(C)c2cc(C(=O)OC)c(C(=O)OC)c(N)c2C(=N)N1c1ccccc1 (stereo unspecified) | 20.6 µM (inactive) | 13.9 µM (inactive) | 52.8 µM (inactive) | 17 µM (inactive) | 15.1 µM (inactive) | 29.1 µM (inactive) | – | 19 µM (inactive) | 14.7 µM (inactive)
O=C1NC2(CCCCC2)C2CCCCC=C12 (stereo unspecified) | > 100 µM (inactive) | > 100 µM (inactive) | > 100 µM (inactive) | – | > 100 µM (inactive) | – | > 100 µM (inactive) | > 100 µM (inactive) | > 100 µM (inactive)
CCOC(=O)c1ccc(N[C@@H]2c3cc4c(cc3C(C3=CC(=O)C(=O)C(OC)=C3)[C@H]3C(=O)OCC32)OCO4)cc1 (stereo partly specified) | – | 6.1 µM (inactive) | 1.12 µM (inactive) | 6.37 µM (inactive) | 1.79 µM (inactive) | 1.91 µM (inactive) | 8.69 µM (inactive) | 6.5 µM (inactive) | 1.48 µM (inactive)
COc1cc(Oc2c(O)c(C)c(OC)c(C(C)=O)c2O)c(C(C)=O)c(O)c1C | – | 55.5 µM (inactive) | 37.8 µM (inactive) | 63.8 µM (inactive) | 47.5 µM (inactive) | > 100 µM (inactive) | > 100 µM (inactive) | 49.5 µM (inactive) | 59.6 µM (inactive)
COc1cc(C(=O)C/C(CCC(=O)Nc2ccc(Cl)cc2C)=N/NC(=O)C(N)=O)ccc1O | > 100 µM (inactive) | > 100 µM (inactive) | > 100 µM (inactive) | > 100 µM (inactive) | > 100 µM (inactive) | – | > 100 µM (inactive) | > 100 µM (inactive) | > 100 µM (inactive)
C=C(C)C12CC3CC(/C(=N/O)C(C1)/C3=N\O)[C@@]2(C)O (stereo partly specified) | – | > 100 µM (inactive) | > 100 µM (inactive) | > 100 µM (inactive) | > 100 µM (inactive) | – | > 100 µM (inactive) | > 100 µM (inactive) | –
O=C(NC1CCCCC1)c1c(O)[nH]c(=S)[nH]c1=O | > 100 µM (inactive) | > 100 µM (inactive) | – | > 100 µM (inactive) | 88.5 µM (inactive) | > 100 µM (inactive) | 99.1 µM (inactive) | > 100 µM (inactive) | –
CC(C)(C)c1cc(C#N)c2c(c1)C(=O)OC2(c1ccccc1)c1ccccc1C#N (stereo unspecified) | > 100 µM (inactive) | > 100 µM (inactive) | > 100 µM (inactive) | > 100 µM (inactive) | > 100 µM (inactive) | – | > 100 µM (inactive) | > 100 µM (inactive) | > 100 µM (inactive)
CC(C)(C)OC(=O)NC1CCC[C@H]1O (stereo partly specified) | – | > 100 µM (inactive) | > 100 µM (inactive) | > 100 µM (inactive) | > 100 µM (inactive) | > 100 µM (inactive) | > 100 µM (inactive) | > 100 µM (inactive) | > 100 µM (inactive)
COc1ccc2c3c(c(C(=O)c4ccccc4)oc13)CCC2 | > 100 µM (inactive) | > 100 µM (inactive) | > 100 µM (inactive) | > 100 µM (inactive) | > 100 µM (inactive) | > 100 µM (inactive) | > 100 µM (inactive) | > 100 µM (inactive) | > 100 µM (inactive)
CCOC(=O)c1cccc(=O)c(C(=O)OCC)c1 | – | 53.1 µM (inactive) | 48.2 µM (inactive) | 97.3 µM (inactive) | 46.8 µM (inactive) | 67 µM (inactive) | 57.3 µM (inactive) | 38.3 µM (inactive) | 46.1 µM (inactive)
